The record followed here is PubChem BioAssay AID1259407 (Chemical Carcinogenesis Research Information System (CCRIS), 2018).

Active and inactive are the calls of the source. No rule for the calls is given here.

The test system of this data set is CCRIS mutagenicity, Ames/micronucleus/aberration tests. Kind of data set: CCRIS mutagenicity studies.
Setting [1] is: Test System: AMES SALMONELLA TYPHIMURIUM, Strain/Indicator: TA98, Metabolic Activation: NONE, Method: STANDARD PLATE.
The mark [2] stands for this setting: Test System: AMES SALMONELLA TYPHIMURIUM, Strain/Indicator: TA100, Metabolic Activation: NONE, Method: STANDARD PLATE.
Setting [3] is: Test System: AMES SALMONELLA TYPHIMURIUM, Strain/Indicator: TA1535, Metabolic Activation: NONE, Method: STANDARD PLATE.
Where [4] appears, read: Test System: AMES SALMONELLA TYPHIMURIUM, Strain/Indicator: TA1537, Metabolic Activation: NONE, Method: STANDARD PLATE.
[5] abbreviates: Test System: AMES SALMONELLA TYPHIMURIUM, Strain/Indicator: TA1538, Metabolic Activation: NONE, Method: STANDARD PLATE.
The mark [6] stands for this setting: Test System: AMES SALMONELLA TYPHIMURIUM, Strain/Indicator: TA98, Metabolic Activation: RAT, LIVER, S-9, AROCLOR 1254, Method: STANDARD PLATE.
Setting [7] is: Test System: AMES SALMONELLA TYPHIMURIUM, Strain/Indicator: TA100, Metabolic Activation: RAT, LIVER, S-9, AROCLOR 1254, Method: STANDARD PLATE.

As to `CC(C)CCCCCCOC(=O)c1ccccc1C(=O)OCCCCCCC(C)C`, the mutagenic call is, setting by setting: under setting [1], “inactive; negative”; (Test System: AMES SALMONELLA TYPHIMURIUM, Strain/Indicator: TA98, Metabolic Activation: RAT LIVER S-9, AROCLOR, Method: STANDARD PLATE) “inactive; negative”; under setting [2], “inactive; negative”; (Test System: AMES SALMONELLA TYPHIMURIUM, Strain/Indicator: TA100, Metabolic Activation: RAT LIVER S-9, AROCLOR, Method: STANDARD PLATE) “inactive; negative”; under setting [3], “inactive; negative”; (Test System: AMES SALMONELLA TYPHIMURIUM, Strain/Indicator: TA1535, Metabolic Activation: RAT LIVER S-9, AROCLOR, Method: STANDARD PLATE) “inactive; negative”. For the same compound, the mutagenic call runs as follows: under setting [4], “inactive; negative”; (Test System: AMES SALMONELLA TYPHIMURIUM, Strain/Indicator: TA1537, Metabolic Activation: RAT LIVER S-9, AROCLOR, Method: STANDARD PLATE) “inactive; negative”; under setting [5], “inactive; negative”; (Test System: AMES SALMONELLA TYPHIMURIUM, Strain/Indicator: TA1538, Metabolic Activation: RAT LIVER S-9, AROCLOR, Method: STANDARD PLATE) “inactive; negative”.

Take `CN(N=O)C(=O)Oc1ccccc1Cl`: the mutagenic call (Test System: E. COLI WP2, Strain/Indicator: WP2, Metabolic Activation: NONE, Method: STANDARD PLATE) is “active; positive”.

Consider `Cc1ccccc1N=Nc1c(O)ccc2ccccc12`, for which the mutagenic call (Test System: AMES SALMONELLA TYPHIMURIUM, Strain/Indicator: TA98, Metabolic Activation: HAMSTER, LIVER, S-9, AROCLOR 1254 (30%), Method: PREINCUBATION) was “inactive; negative”; the mutagenic call (Test System: AMES SALMONELLA TYPHIMURIUM, Strain/Indicator: TA98, Metabolic Activation: NONE, Method: PREINCUBATION) is “inactive; negative”; the mutagenic call (Test System: AMES SALMONELLA TYPHIMURIUM, Strain/Indicator: TA98, Metabolic Activation: RAT, LIVER, S-9, AROCLOR 1254 (30%), Method: PREINCUBATION) is “inactive; negative”; the mutagenic call (Test System: AMES SALMONELLA TYPHIMURIUM, Strain/Indicator: TA100, Metabolic Activation: HAMSTER, LIVER, S-9, AROCLOR 1254 (30%), Method: PREINCUBATION) was “active; positive”; the mutagenic call (Test System: AMES SALMONELLA TYPHIMURIUM, Strain/Indicator: TA100, Metabolic Activation: NONE, Method: PREINCUBATION) was “inactive; negative”; the mutagenic call (Test System: AMES SALMONELLA TYPHIMURIUM, Strain/Indicator: TA100, Metabolic Activation: RAT, LIVER, S-9, AROCLOR 1254 (30%), Method: PREINCUBATION) is “inactive; negative”.

Consider `Cc1cc2c(cc1C)-c1ccccc1C2`, for which the mutagenic call under setting [6] was “inactive; negative” and the mutagenic call under setting [7] is “inactive; negative”.

`Cn1cc(C[C@@]2(O)C(=O)O[C@@H]3[C@@H](O)CO[C@@]32O)c2ccccc21`: the mutagenic call is, setting by setting: under setting [1], “active; positive”; (Test System: AMES SALMONELLA TYPHIMURIUM, Strain/Indicator: TA98, Metabolic Activation: RAT, LIVER, S-9, PCB, Method: STANDARD PLATE) “active; positive”; under setting [2], “active; positive”; (Test System: AMES SALMONELLA TYPHIMURIUM, Strain/Indicator: TA100, Metabolic Activation: RAT, LIVER, S-9, PCB, Method: STANDARD PLATE) “active; positive”.

`[O-][N+](=Nc1ccc(Cl)c(Cl)c1)c1ccc(Cl)c(Cl)c1`: the mutagenic call was “inactive; negative” (Test System: AMES SALMONELLA TYPHIMURIUM, Strain/Indicator: TA97, Metabolic Activation: NONE, Method: STANDARD PLATE); “inactive; negative” (Test System: AMES SALMONELLA TYPHIMURIUM, Strain/Indicator: TA97, Metabolic Activation: RAT, LIVER, S-9, AROCLOR 1254, Method: STANDARD PLATE); “inactive; negative” under setting [1]; “inactive; negative” under setting [6]; “inactive; negative” under setting [2]; “inactive; negative” under setting [7]. The mutagenic call by setting is: (Test System: AMES SALMONELLA TYPHIMURIUM, Strain/Indicator: TA104, Metabolic Activation: NONE, Method: STANDARD PLATE) “inactive; negative”; (Test System: AMES SALMONELLA TYPHIMURIUM, Strain/Indicator: TA104, Metabolic Activation: RAT, LIVER, S-9, AROCLOR 1254, Method: STANDARD PLATE) “inactive; negative”; (Test System: CHINESE HAMSTER OVARY, Strain/Indicator: CHO-K1-BH4 (HGPRT), Metabolic Activation: NONE) “inactive; negative”; (Test System: CHINESE HAMSTER OVARY, Strain/Indicator: CHO-K1-BH4 (HGPRT), Metabolic Activation: RAT, LIVER, S-9, AROCLOR 1254) “inactive; negative”.

Turning to `N#CCCNCCC#N`, the mutagenic call runs as follows: (Test System: AMES SALMONELLA TYPHIMURIUM, Strain/Indicator: TA98, Metabolic Activation: HAMSTER, LIVER, S-9, AROCLOR 1254, Method: STANDARD PLATE) “inactive; negative”; under setting [1], “inactive; negative”; under setting [6], “inactive; negative”; (Test System: AMES SALMONELLA TYPHIMURIUM, Strain/Indicator: TA100, Metabolic Activation: HAMSTER, LIVER, S-9, AROCLOR 1254, Method: STANDARD PLATE) “inactive; negative”; under setting [2], “inactive; negative”; under setting [7], “inactive; negative”. Moreover, the mutagenic call was “inactive; negative” (Test System: AMES SALMONELLA TYPHIMURIUM, Strain/Indicator: TA1535, Metabolic Activation: HAMSTER, LIVER, S-9, AROCLOR 1254, Method: STANDARD PLATE); “inactive; negative” under setting [3]; “inactive; negative” (Test System: AMES SALMONELLA TYPHIMURIUM, Strain/Indicator: TA1535, Metabolic Activation: RAT, LIVER, S-9, AROCLOR 1254, Method: STANDARD PLATE); “inactive; negative” (Test System: AMES SALMONELLA TYPHIMURIUM, Strain/Indicator: TA1537, Metabolic Activation: HAMSTER, LIVER, S-9, AROCLOR 1254, Method: STANDARD PLATE); “inactive; negative” under setting [4]; “inactive; negative” (Test System: AMES SALMONELLA TYPHIMURIUM, Strain/Indicator: TA1537, Metabolic Activation: RAT, LIVER, S-9, AROCLOR 1254, Method: STANDARD PLATE). In addition, the mutagenic call is “inactive; negative” (Test System: AMES SALMONELLA TYPHIMURIUM, Strain/Indicator: TA1538, Metabolic Activation: HAMSTER, LIVER, S-9, AROCLOR 1254, Method: STANDARD PLATE); “inactive; negative” under setting [5]; “inactive; negative” (Test System: AMES SALMONELLA TYPHIMURIUM, Strain/Indicator: TA1538, Metabolic Activation: RAT, LIVER, S-9, AROCLOR 1254, Method: STANDARD PLATE); “inactive; negative. reevaluation of results: negative” (Test System: MOUSE LYMPHOMA, Strain/Indicator: L5178Y (TK+/TK-), Metabolic Activation: NONE, Method: SUSPENSION/PLATE); “active; positive. reevaluation of results: equivocal” (Test System: MOUSE LYMPHOMA, Strain/Indicator: L5178Y (TK+/TK-), Metabolic Activation: RAT, LIVER, S-9, AROCLOR 1254, Method: SUSPENSION/PLATE).
